Values quoted from earlier work, collected in patent publication US8986529B2, “Isotachophoresis having interacting anionic and cationic shock waves” (The Board of Trustees of the Leland Stanford Junior …, priority 2010, dated 2015).
Read-outs that look alike come from different tables or passages of the source.

Experiments:
[1] = for pKa: text b64: pKa,TE− of Tricine, pKa,LE+ of Imidazole, pKa,TE+ of Arginine
[2] = Table 1, fully-ionized (absolute) mobility of the +1 cation, cationic LE+/TE+ candidates for focusing to separation mode
[3] = Table 2, absolute mobility of the cation, cationic LE+/TE+ candidates for bidirectional cascade ITP
[4] = Table 2, acid dissociation constant of the cation, bidirectional cascade ITP buffers
[5] = Table 1, cationic LE+/TE+ candidates for focusing to separation mode

Structure (SMILES)	μ+1 [2]	μ+1 [3]	pKa,+1 [1, 4]	pKa,+1 [1, 5]	pKa [1]
Cc1ccccn1 [2-methyl pyridine]	40.1 ×10^−9 m^2V^−1s^−1	40.1 ×10^−9 m^2V^−1s^−1	6.2		
Cc1cccnc1 [3-methyl pyridine]	40.1 ×10^−9 m^2V^−1s^−1			5.5	
Cc1ccncc1 [4-methyl pyridine]		40.1 ×10^−9 m^2V^−1s^−1			
CC(N)(CO)CO [Amediol]	33.5 ×10^−9 m^2V^−1s^−1				
N=C(N)NCCC[C@H](N)C(=O)O [Arginine]	26.9 ×10^−9 m^2V^−1s^−1			8.92	8.92
OCCN(CCO)C(CO)(CO)CO [Bistris]		26 ×10^−9 m^2V^−1s^−1			
c1c[nH]cn1 [Imidazole]	52 ×10^−9 m^2V^−1s^−1	52 ×10^−9 m^2V^−1s^−1	7.15	7.15	7.15
c1ccncc1 [Pyridine]		30 ×10^−9 m^2V^−1s^−1			
NC(CO)(CO)CO [Tris]	29.5 ×10^−9 m^2V^−1s^−1	29.5 ×10^−9 m^2V^−1s^−1			
